Experimental data taken from the supplement of paper PMC10627819.

Experiments:
B. subtilis 168 [1] = test: fitness (endpoint OD595 vs no drug) (fraction); higher = more growth
Method in brief: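 Growth medium was TSB, LB Lennox or CY, and plates were kept at 37 °C. Inoculation was at OD595 0.01 in 384-well plates, at 30 µl per well or 55 µl for S. pneumoniae. OD595 was monitored every 30 min for 14 h and background-subtracted using the first reading. Fitness is the optical density on entering stationary phase divided by the robust mean of no-drug controls, with values capped at 1.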

B. subtilis 168 [2] = test: Bliss interaction score (quartile over a dose matrix) (fitness difference); higher = more antagonism (negative = synergy)
Method in brief: (§1)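 Fitness was derived from optical density at entry into stationary phase, divided by the robust mean of the no-drug wells on the same plate. That reading was taken as OD595, and the ratio was capped at 1. Single-drug fitness was inferred from the combination data. The Bliss score, observed fitness minus the expected product of single-drug fitness, was summarised as quartiles over technical, biological and donor/recipient replicates.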

S. aureus DSM 20231 = test: as above
Method in brief: as §1

S. aureus Newman = test: as above
Method in brief: as §1

S. pneumoniae D39V = test: as above
Method in brief: as §1
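Throughout, for Bliss interaction score (quartile over a dose matrix): first quartile when negative (synergy) and third quartile when positive (antagonism).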

CO[C@@H]1[C@@H](OC(N)=O)[C@@H](O)[C@H](Oc2ccc3c(O)c(NC(=O)c4ccc(O)c(CC=C(C)C)c4)c(=O)oc3c2C)OC1(C)C [Novobiocin] + C[n+]1ccc(-c2cc[n+](C)cc2)cc1 [Paraquat]
fitness, B. subtilis 168 [1]
Conditions | first compound 0.0125 µg/mL | first compound 0.025 µg/mL | first compound 0.05 µg/mL
partner 1.25 µg/mL | 0.937 | 0.942 | 0.976
partner 2.5 µg/mL | 0.939 | 0.956 | 0.999
partner 5 µg/mL | 0.855 | 0.832 | 0.912

fitness, B. subtilis 168 [1], one replicate
Conditions | first compound 0.125 µg/mL | first compound 0.25 µg/mL | first compound 0.5 µg/mL
partner 1.25 µg/mL | 0.908 | ≥ 1 | 0.664
partner 2.5 µg/mL | 0.951 | 0.878 | 0.517
partner 5 µg/mL | 0.836 | 0.819 | 0.452

Conditions | Bliss interaction score
B. subtilis 168 [2] | 0.0704
S. aureus DSM 20231 | 0.0456
S. aureus Newman | 0.0868
S. pneumoniae D39V | 0.0614

CO[C@@H]1[C@@H](OC(N)=O)[C@@H](O)[C@H](Oc2ccc3c(O)c(NC(=O)c4ccc(O)c(CC=C(C)C)c4)c(=O)oc3c2C)OC1(C)C [Novobiocin] + Cc1cc(NS(=O)(=O)c2ccc(N)cc2)no1 [Sulfamethoxazol]
fitness, B. subtilis 168 [1]
Conditions | first compound 0.0125 µg/mL | first compound 0.025 µg/mL | first compound 0.05 µg/mL
partner 1 µg/mL | 0.932 | 0.959 | 0.951
partner 2 µg/mL | 0.968 | 0.955 | 0.876
partner 4 µg/mL | 0.966 | 0.989 | 0.92

fitness, B. subtilis 168 [1], one replicate
Conditions | first compound 0.05 µg/mL | first compound 0.1 µg/mL | first compound 0.125 µg/mL | first compound 0.2 µg/mL | first compound 0.25 µg/mL | first compound 0.5 µg/mL
partner 0.5 µg/mL | 0.972 | ≥ 1 | – | ≥ 1 | – | –
partner 1 µg/mL | – | 0.864 | 0.999 | 0.81 | 0.897 | 0.49
partner 2 µg/mL | – | 0.814 | 0.927 | 0.885 | 0.838 | 0.507
partner 4 µg/mL | – | – | ≥ 1 | – | 0.909 | 0.482

Conditions | Bliss interaction score
B. subtilis 168 [2] | 0.0447
S. aureus DSM 20231 | 0.0483
S. aureus Newman | 0.041
S. pneumoniae D39V | -0.0959

CO[C@@H]1[C@@H](OC(N)=O)[C@@H](O)[C@H](Oc2ccc3c(O)c(NC(=O)c4ccc(O)c(CC=C(C)C)c4)c(=O)oc3c2C)OC1(C)C [Novobiocin] + Cc1onc(-c2ccccc2)c1C(=O)N[C@@H]1C(=O)N2[C@@H]1SC(C)(C)[C@@H]2C(=O)O [Oxacillin]
fitness, B. subtilis 168 [1]
Conditions | first compound 0.0125 µg/mL | first compound 0.025 µg/mL | first compound 0.05 µg/mL
partner 0.002 µg/mL | 0.988 | 0.974 | ≥ 1
partner 0.004 µg/mL | 0.949 | 0.926 | ≥ 1
partner 0.008 µg/mL | 0.946 | 0.895 | ≥ 1

fitness, B. subtilis 168 [1], one replicate
Conditions | first compound 0.05 µg/mL | first compound 0.1 µg/mL | first compound 0.125 µg/mL | first compound 0.2 µg/mL | first compound 0.25 µg/mL | first compound 0.5 µg/mL
partner 0.0078 µg/mL | – | – | 0.997 | – | 0.968 | 0.547
partner 0.0155 µg/mL | – | – | 0.952 | – | 0.948 | 0.498
partner 0.031 µg/mL | – | – | 0.848 | – | 0.798 | 0.289
partner 0.075 µg/mL | 0.673 | 0.672 | – | 0.734 | – | –
partner 0.15 µg/mL | 0.0266 | 0.0276 | – | 0.0165 | – | –
partner 0.3 µg/mL | 0.0465 | 0.036 | – | 0.0154 | – | –

Conditions | Bliss interaction score
B. subtilis 168 [2] | 0.0603
S. aureus DSM 20231 | 0.0609
S. aureus Newman | -0.0672
S. pneumoniae D39V | -0.0758
